Key:
10LH = test: SPR of peptide-loaded HLA-A*24:02 flowed over 10LH-biotin on a streptavidin chip; type: binding; conditions: peptide loaded on HLA-A*24:02
HLA-B*08:01 = HLA-B*08:01 (Homo sapiens, UniProt P01889, A93T/A95T/D138N/E176V/E187T/K202T/Q94N/R180D/S35A/V36M/Y33D/Y91F); test: pHLA complex formation of PHOX2B peptide with HLA-B*08:01; conditions: HLA-B*08:01, despite NetMHCpan 4.1 prediction

Row | formation of stable complexes with the HLA (HLA-B*08:01) | Sequence | dissociation rate (qualitative) (10LH)
1 |  | LYLPVRVLI [ATG2A] | slow dissociation rate
2 | did not form stable complexes | QYNPIRTTF [PHOX2B] | 
